Patent US9765029B2, “Pyridine compounds as sodium channel blockers” (Purdue Pharma L.P., priority 2010, dated 2017)

Tested on: FCA-induced inflammation of the rat hind paw
Experiment: Freund's complete adjuvant (FCA) model of inflammatory pain, paw withdrawal threshold (PWT)
Assay type: in vivo
Method: Test Animals: Each experiment uses rats weighing between 200-260 g at the start of the experiment. The rats are group-housed and have free access to food and water at all times, except prior to oral administration of a test compound when food is removed for 16 hours before dosing. A control group acts as a comparison to rats treated with a compound of Formulae I-XIII. The control group is administered the carrier as used for the test compound. The volume of carrier administered to the control group is the same as the volume of carrier and test compound administered to the test group.
To assess the actions of the compounds of Formulae I-XIII on the treatment of inflammatory pain the Freund's complete adjuvant (“FCA”) model of inflammatory pain was used. […] 24 hour post injection, the animal was assessed for response to noxious mechanical stimuli by determining the paw withdrawal threshold (PWT), or to noxious thermal stimuli by determining the paw withdrawal latency (PWL), as described below. […] Responses to noxious mechanical or thermal stimuli were determined 1, 3, and 5 hours post administration (admin). […]
Sensitivity to noxious mechanical stimuli can be measured in animals using the paw pressure test to assess mechanical hyperalgesia. […] PWT is determined once for each rat at each time point. PWT can be measured only in the injured paw, or in both the injured and non-injured paw. […]

NC(=O)[C@H](CO)NC(=O)c1cccc(-c2ccc(Oc3ccc(F)cc3)cc2)n1 [Compound 47, 6-[4-(4-fluoro-phenoxy)-phenyl]-pyridine-2-carboxylic acid ((S)-1-carbamoyl-2-hydroxy-ethyl)-amide]
increase in PWT (10 mg/kg oral (PO), 3 h): statistically significant increase
increase in PWT (30 mg/kg oral (PO), 1, 3 and 5 h): statistically significant increase
